Literature values as cited in patent US20240424000A1, “LONG-ACTING INTRA-ARTICULAR DOSAGE FORMS CONTAINING FLUTICASONE PROPIONATE AND USE THEREOF” (Eupraxia Pharmaceuticals Inc., priority 2023, published 2024).

Tested on: cartilage
Conditions: IA every 12 weeks for 2 years; McAlindon et al. 2017

Q: For `CC1(C)O[C@@H]2C[C@H]3[C@@H]4CCC5=CC(=O)C=C[C@]5(C)[C@@]4(F)[C@@H](O)C[C@]3(C)[C@]2(C(=O)CO)O1` [TCA, triamcinolone acetonide], which “effect of chronic exposure on cartilage” value is on record?
A: The value was “led to increased cartilage loss”.
